Values after ≈ are worked out from the molar mass of the structure shown. One block for each molecule: values may come before it.
Experiments:
HIV-1 (RF) = assay type: cell-based; settings: 6 days, MTS, control, row printed in μM, read-out: Ic50, activity against HIV-1 in CEM-SS cells
Method: (§1) CEM-SS cells (obtained from the AIDS Research and Reference Reagent Repository, Bethesda, Md.) are passaged in T-75 flasks in tissue culture media (RP 1640 medium (no phenol red) with 10% Fetal Bovine Serum (heat inactivated), 2 mM L-glutamine, 100 U/mL penicillin, 100 μg/mL streptomycin, and 10 μg/mL gentamycin). On the day preceding the assay, the cells are split 1:2. On the day of assay the cells are collected by centrifugation, washed twice with tissue culture medium and resuspended in fresh tissue culture medium. Total cell and viability counting is performed using a hemacytometer. Cell viability prior to the assay is determined by Trypan Blue dye exclusion and must exceed 95%. A pretitered aliquot of HIV-1 RF (AIDS Research and Reference Reagent Repository, Bethesda, Md.), CEM-SS cells and compound are placed into microtiter plates. Each plate contains cell control wells (cells only), virus control wells (cell plus virus), drug toxicity control wells (cells plus drugs only), drug calorimetric control wells (drugs only) as well as experimental wells (drug plus cells plus virus) . Cultures are incubated for 6 days at 37° C., 5% CO2 and antiviral activity and compound toxicity determined by MTS staining.

CEM-SS cells = system: CEM-SS cells
Method: as §1

IIIB strain of HIV [1] = settings: virus adsorption interval of 1 h; cited from earlier work
[2] = system: herpes simplex virus type 1 (HSV-1) strain HF; experiment: Virus induced cytopathic effects (CPE) inhibition assay in Vero cells (MTS); assay type: cell-based; settings: Human alphaherpesvirus 1, Vero, read-out: Ic50 against HSV-1 virus
From the text: (§2) A virus induced cytopathic effects (CPE) inhibition assay procedure using Promega's cell titer aqueous one solution (MTS, metabolic dye similar to XTT) is employed to evaluate compounds for antiviral activity against herpes simplex virus type 1 (HSV-1) strain HF in Vero cells. Vero cells are pregrown in 96 well tissue culture plates using Dulbecco's modified eagle's media (DMEM) supplemented with 10% heat inactivated fetal bovine serum (FBS), L-glutamine, penicillin and streptomycin. Antiviral assays are designed to test six half log dilution of each compound in triplicate against the challenge virus in microtiter plate wells containing host cell monolayers. To each of the replicate cell cultures is added 50 uL of the test drug solution and 50 uL of virus suspension. Cell control containing medium alone, virus infected controls containing medium and virus, drug cytotoxicity controls containing medium and each drug concentration, reagent controls containing culture medium only (no cells), and drug calorimetric controls containing drug and medium (no cells) are run simultaneously with the test samples. The plates are incubated at 37° C. in a humidified atmosphere containing 5% CO2 until maximum CPE is observed in the untreated virus control cultures (day 5). CPE inhibition is determined by the dye (MTS) uptake procedure. […]

[3] = Drug cytotoxicity in Vero cells (MTS), HSV-1 assay; assay type: cell-based; settings: African green monkey
From the text: as §2

IIIB strain of HIV [4] = experiment: Virus attachment assay (HeLa CD4 LTR β-gal cells); assay type: cell-based; settings: Human immunodeficiency virus 1, 1 h adsorption
Method: (§3) This assay is designed to detect compounds that interact with the cell and block virus attachment, and/or compounds that interact with the forming attachment/fusion complex. The attachment assay is performed with HeLa CD4 LTR β-gal cells. HeLa CD4 LTR β-gal cells are routinely cultured with the required selection antibiotics. Twenty-four hours prior to initiation of the assay the cells are trypsinized, counted, and 1×10^4 cells placed in a 0.2 cm well in media without selection antibiotics. At 24 h media is removed and compound in media placed on the cells and incubated for 15 min at 37° C. […] At the end of the incubation, the wells are washed 3 times with media and the culture continued for 40 to 48 h. At termination of the assay, media is removed and β-galactosidase enzyme expression determined by chemiluminescence per manufacturer instructions (Tropix Gal-screen™, Bedford Mass.) by a single step chemiluminescent method using a single solution to lyse the cells and detect β-galactosidase enzyme activity. Compound toxicity is monitored on a sister plate by XTT dye reduction. All determinations are performed in triplicate with serial ½ Log10 dilution of the test materials.

HeLa CD4 LTR β-gal cells [5] = experiment: Compound toxicity (XTT, sister plate) in the virus attachment assay; assay type: cell-based
Method: as §3

HeLa CD4 LTR β-gal cells [6] = experiment: Compound toxicity (XTT, sister plate) in the fusion assay; assay type: cell-based
Method: The fusion assay assesses the ability of compounds to block cell-to-cell fusion mediated by HIV-1 Env and CD4 expressed on separate cells. This assay is sensitive to inhibitors of both the gp120/CD4 interaction and inhibitors of the X4 coreceptor. First, 5×10^3 HeLa CD4 LTR β-gal cells are placed in microtiter wells and incubated overnight. The following day the media is removed and the HeLa CD4 LTR β-gal cells are incubated for 1 h at 37° C. in fresh media with test compound. Following the incubation 5×10^3 HL2/3 cells are added and the incubation continued for 40 to 48 h. At 40 to 48 h β-galactosidase enzyme expression is detected by chemiluminescence (Tropix Gal-screen™, Tropix, Bedford, Mass.). Compound toxicity is monitored on a sister plate using XTT dye reduction. All determinations are performed in triplicate with serial ½ Log10 dilution of the test materials.

[7] = system: vaginal/cervical epithelial and other cells; settings: concentrations as low as; cited from earlier work

IC50 (HIV-1 (RF)): 0.005 µM
Molecule: Cc1cn([C@H]2C[C@H](N=[N+]=[N-])[C@@H](CO)O2)c(=O)[nH]c1=O [AZT]
CC50 (CEM-SS cells): > 1000 nM
Activity in the virus attachment assay (in words) (IIIB strain of HIV [1]): not active

Molecule: Nc1nc2c(ncn2COCCO)c(=O)[nH]1 [Acyclovir]
IC50 [2]: 2700 nM
CC50 at 5 day [3]: > 10 µg/mL

IC50 (IIIB strain of HIV [4]): 0.32 µg/mL (≈ 0.354 µM)
Molecule: COc1cc(-c2ccc(/N=N/c3ccc4c(S(=O)(=O)O)cc(S(=O)(=O)O)c(N)c4c3O)c(OC)c2)ccc1/N=N/c1ccc2c(S(=O)(=O)O)cc(S(=O)(=O)O)c(N)c2c1O [Chicago Sky Blue]
Attachment Assay TC50 (HeLa CD4 LTR β-gal cells [5]): >10 µg/mL
Fusion Assay TC50 (HeLa CD4 LTR β-gal cells [6]): >10 µg/mL

Molecule: Nonoxynol-9
Concentration that can injure vaginal/cervical epithelial and other cells [7]: about 0.0005%
